The values that follow come from PMC9407317 (Proceedings of the National Academy of Sciences of the …, 2022).

Experiment [1] concerns the target T1, SK4 K+ channel (Homo sapiens, UniProt O15554). The experiment can be described thus: whole-cell patch clamp. Format: cell-based. The settings on record: read-out: % inhibition at 0.5 μM. Background: In patch-clamp work, channel activity is measured electrically.
The target in experiment [2] is T1, SK4 K+ channel. Format: cell-based.

T1 sequence (O15554 whole entry): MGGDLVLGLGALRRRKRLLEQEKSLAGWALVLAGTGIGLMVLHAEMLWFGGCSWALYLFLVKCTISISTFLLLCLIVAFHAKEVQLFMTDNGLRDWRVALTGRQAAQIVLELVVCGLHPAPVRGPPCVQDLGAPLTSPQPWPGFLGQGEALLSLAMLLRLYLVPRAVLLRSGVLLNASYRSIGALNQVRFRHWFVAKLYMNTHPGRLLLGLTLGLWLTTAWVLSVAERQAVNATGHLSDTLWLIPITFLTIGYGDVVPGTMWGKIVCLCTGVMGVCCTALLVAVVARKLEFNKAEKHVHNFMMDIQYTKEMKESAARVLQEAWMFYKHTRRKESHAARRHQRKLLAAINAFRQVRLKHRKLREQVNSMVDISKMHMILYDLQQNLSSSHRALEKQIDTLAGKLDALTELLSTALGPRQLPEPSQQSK

On to `Clc1ccccc1C(c1ccccc1)(c1ccccc1)n1cccn1` [Tram-34], for which the inhibition (commonly how much of the control response was suppressed) at 0.5 µM on SK4 K+ channel [1] was found to be 86%.
In the case of `CCCCCCCC(=O)OC[C@H](COP(=O)(O)O[C@@H]1[C@H](O)[C@H](O)[C@@H](OP(=O)(O)O)[C@H](OP(=O)(O)O)[C@H]1O)OC(=O)CCCCCCC` [diC8-PIP2], the EC50 (in general, the concentration that produces a half-maximal response) on SK4 K+ channel [2] was determined as 154 nM.
